ChEMBL document CHEMBL4507270 (2021)

Columns and labels:
[1] = molecular target: Mitogen-activated protein kinase kinase kinase kinase 1 (Homo sapiens) (UniProt Q92918)
[2] = test system: Mast/stem cell growth factor receptor Kit (Homo sapiens), P10721 [L576P]
[3] = molecular target: Phosphatidylinositol 5-phosphate 4-kinase type-2 gamma (Homo sapiens) (UniProt Q8TBX8)
[4] = molecular target: Tyrosine-protein kinase Fgr (Homo sapiens) (UniProt P09769)
[5] = molecular target: Serine/threonine-protein kinase ULK3 (Homo sapiens) (UniProt Q6PHR2)
[6] = molecular target: Dual specificity tyrosine-phosphorylation-regulated kinase 1A (Homo sapiens) (UniProt Q13627)
[7] = test system: Epidermal growth factor receptor (Homo sapiens), P00533 [L858R,T790M]
[8] = molecular target: Myosin-IIIb (Homo sapiens) (UniProt Q8WXR4)
[9] = molecular target: Serine/threonine-protein kinase 3 (Homo sapiens) (UniProt Q13188)
[10] = molecular target: Receptor tyrosine-protein kinase erbB-3 (Homo sapiens) (UniProt P21860)
[11] = molecular target: Dual serine/threonine and tyrosine protein kinase (Homo sapiens) (UniProt Q6XUX3)
[12] = molecular target: Serine/threonine-protein kinase D3 (Homo sapiens) (UniProt O94806)
[13] = molecular target: Beta-1 adrenergic receptor (Homo sapiens) (UniProt P08588); conditions: Compound concentration 10.0 uM
[14] = molecular target: Non-receptor tyrosine-protein kinase TYK2 (Homo sapiens) (UniProt P29597)
[15] = molecular target: Receptor-type tyrosine-protein kinase FLT3 (Homo sapiens) (UniProt P36888)
[16] = molecular target: Ephrin type-A receptor 5 (Homo sapiens) (UniProt P54756)
[17] = molecular target: Muscarinic acetylcholine receptor M4 (Homo sapiens) (UniProt P08173); conditions: Compound concentration 10.0 uM
[18] = molecular target: Serine/threonine-protein kinase B-raf (Homo sapiens) (UniProt P15056)
[19] = molecular target: Muscarinic acetylcholine receptor M3 (Homo sapiens) (UniProt P20309); conditions: Compound concentration 10.0 uM
[20] = molecular target: Serine/threonine-protein kinase PAK 4 (Homo sapiens) (UniProt O96013)
[21] = molecular target: Serine/threonine-protein kinase PAK 2 (Homo sapiens) (UniProt Q13177)
[22] = molecular target: Serine/threonine-protein kinase NLK (Homo sapiens) (UniProt Q9UBE8)
[23] = molecular target: Mitogen-activated protein kinase kinase kinase kinase 3 (Homo sapiens) (UniProt Q8IVH8)
[24] = molecular target: Homeodomain-interacting protein kinase 1 (Homo sapiens) (UniProt Q86Z02)
[25] = molecular target: Tyrosine-protein kinase JAK2 (Homo sapiens) (UniProt O60674)
[26] = molecular target: Protein-tyrosine kinase 2-beta (Homo sapiens) (UniProt Q14289)
[27] = molecular target: Dual specificity testis-specific protein kinase 1 (Homo sapiens) (UniProt Q15569)
[28] = GPCRScan assay: inhibition of GABA/PBR; parameters: species or system Rattus norvegicus; radioligand conc. used [nm] 0.3 – 2.0, parental cells brain tissue
[29] = test system: Epidermal growth factor receptor (Homo sapiens), P00533 [UNDEFINED MUTATION]
[30] = test system: Phosphatidylinositol 4,5-bisphosphate 3-kinase catalytic subunit alpha isoform (Homo sapiens), P42336 [H1047Y]
[31] = molecular target: GABA-A receptor; anion channel (Rattus norvegicus) (UniProt O09028+P15431+P18506+P18508+P19969+P20236+P23574+P23576+P28471+P28473+P30191+P62813+P63079+P63138+Q91ZM7+Q9ES14); conditions: Compound concentration 10.0 uM
[32] = molecular target: Tyrosine-protein kinase Fes/Fps (Homo sapiens) (UniProt P07332)
[33] = molecular target: Ribosomal protein S6 kinase beta-1 (Homo sapiens) (UniProt P23443)
[34] = molecular target: Death-associated protein kinase 1 (Homo sapiens) (UniProt P53355)
[35] = molecular target: Tyrosine-protein kinase ABL1 (Homo sapiens) (UniProt P00519)
[36] = molecular target: Protein kinase C theta type (Homo sapiens) (UniProt Q04759)
[37] = molecular target: cAMP-dependent protein kinase catalytic subunit alpha (Homo sapiens) (UniProt P17612)
[38] = molecular target: Cyclin-G-associated kinase (Homo sapiens) (UniProt O14976)
[39] = molecular target: Cyclin-dependent kinase 13 (Homo sapiens) (UniProt Q14004)
[40] = molecular target: Serine/threonine-protein kinase PRP4 homolog (Homo sapiens) (UniProt Q13523)
[41] = molecular target: MAP/microtubule affinity-regulating kinase 3 (Homo sapiens) (UniProt P27448)
[42] = molecular target: Tyrosine-protein kinase FRK (Homo sapiens) (UniProt P42685)
[43] = molecular target: Casein kinase I isoform gamma-1 (Homo sapiens) (UniProt Q9HCP0)
[44] = molecular target: Proto-oncogene tyrosine-protein kinase Src (Homo sapiens) (UniProt P12931)
[45] = Compound concentration 1000.0 nM
[46] = Compound concentration 100.0 nM

Sequence of Dual serine/threonine and tyrosine protein kinase (Homo sapiens) (Q6XUX3 whole entry): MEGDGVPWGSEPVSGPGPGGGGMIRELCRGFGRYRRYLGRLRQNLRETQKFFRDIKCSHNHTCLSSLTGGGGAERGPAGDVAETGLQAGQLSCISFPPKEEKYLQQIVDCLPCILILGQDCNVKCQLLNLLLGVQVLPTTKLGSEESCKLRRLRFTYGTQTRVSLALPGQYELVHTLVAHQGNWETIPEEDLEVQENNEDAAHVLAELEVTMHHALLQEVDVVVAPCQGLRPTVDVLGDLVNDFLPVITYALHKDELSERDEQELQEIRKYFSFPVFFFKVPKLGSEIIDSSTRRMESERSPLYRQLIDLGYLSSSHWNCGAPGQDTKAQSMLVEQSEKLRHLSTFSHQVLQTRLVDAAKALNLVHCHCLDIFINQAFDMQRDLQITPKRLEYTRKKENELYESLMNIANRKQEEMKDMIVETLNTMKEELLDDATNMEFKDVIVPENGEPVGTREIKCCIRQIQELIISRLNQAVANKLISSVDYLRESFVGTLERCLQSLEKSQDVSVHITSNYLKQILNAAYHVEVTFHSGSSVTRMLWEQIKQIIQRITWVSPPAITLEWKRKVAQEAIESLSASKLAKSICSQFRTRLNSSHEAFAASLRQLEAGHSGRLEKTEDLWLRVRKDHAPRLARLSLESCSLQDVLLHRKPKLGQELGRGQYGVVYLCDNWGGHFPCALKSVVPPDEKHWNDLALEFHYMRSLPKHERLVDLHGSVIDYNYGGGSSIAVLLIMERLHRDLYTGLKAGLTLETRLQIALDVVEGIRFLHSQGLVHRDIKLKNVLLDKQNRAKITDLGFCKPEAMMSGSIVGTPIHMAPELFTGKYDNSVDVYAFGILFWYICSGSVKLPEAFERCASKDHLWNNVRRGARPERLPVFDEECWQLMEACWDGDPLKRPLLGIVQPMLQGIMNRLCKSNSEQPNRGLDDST
Sequence of Proto-oncogene tyrosine-protein kinase Src (Homo sapiens) (P12931 2-536 limits assumed): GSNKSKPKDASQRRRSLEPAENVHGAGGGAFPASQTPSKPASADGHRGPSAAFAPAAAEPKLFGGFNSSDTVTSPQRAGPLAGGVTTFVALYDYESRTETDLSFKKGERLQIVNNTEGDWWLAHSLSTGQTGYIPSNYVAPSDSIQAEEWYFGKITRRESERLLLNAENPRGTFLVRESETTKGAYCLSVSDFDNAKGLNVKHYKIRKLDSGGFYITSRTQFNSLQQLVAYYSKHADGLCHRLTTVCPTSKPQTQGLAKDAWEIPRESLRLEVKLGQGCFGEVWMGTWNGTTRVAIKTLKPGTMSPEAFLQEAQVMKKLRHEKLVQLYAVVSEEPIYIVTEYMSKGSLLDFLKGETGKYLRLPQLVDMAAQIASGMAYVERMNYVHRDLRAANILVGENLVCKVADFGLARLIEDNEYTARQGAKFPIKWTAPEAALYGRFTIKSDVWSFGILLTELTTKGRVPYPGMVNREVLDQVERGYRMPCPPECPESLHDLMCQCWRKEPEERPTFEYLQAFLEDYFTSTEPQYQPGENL
Sequence of Serine/threonine-protein kinase 3 (Homo sapiens) (Q13188 whole entry): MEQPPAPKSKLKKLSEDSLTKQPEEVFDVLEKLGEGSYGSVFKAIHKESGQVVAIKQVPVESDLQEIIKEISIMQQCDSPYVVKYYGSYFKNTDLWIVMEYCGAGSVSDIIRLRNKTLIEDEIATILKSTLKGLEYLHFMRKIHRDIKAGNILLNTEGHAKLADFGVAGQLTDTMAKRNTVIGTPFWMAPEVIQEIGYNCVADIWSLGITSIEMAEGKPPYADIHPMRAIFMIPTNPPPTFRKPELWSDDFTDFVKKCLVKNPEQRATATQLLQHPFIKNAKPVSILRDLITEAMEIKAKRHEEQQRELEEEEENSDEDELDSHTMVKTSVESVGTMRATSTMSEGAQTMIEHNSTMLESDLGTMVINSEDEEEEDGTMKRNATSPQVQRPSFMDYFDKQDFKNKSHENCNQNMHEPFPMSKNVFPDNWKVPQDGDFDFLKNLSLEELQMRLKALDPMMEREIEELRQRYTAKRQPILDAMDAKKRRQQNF
Sequence of Tyrosine-protein kinase JAK2 (Homo sapiens) (O60674 whole entry): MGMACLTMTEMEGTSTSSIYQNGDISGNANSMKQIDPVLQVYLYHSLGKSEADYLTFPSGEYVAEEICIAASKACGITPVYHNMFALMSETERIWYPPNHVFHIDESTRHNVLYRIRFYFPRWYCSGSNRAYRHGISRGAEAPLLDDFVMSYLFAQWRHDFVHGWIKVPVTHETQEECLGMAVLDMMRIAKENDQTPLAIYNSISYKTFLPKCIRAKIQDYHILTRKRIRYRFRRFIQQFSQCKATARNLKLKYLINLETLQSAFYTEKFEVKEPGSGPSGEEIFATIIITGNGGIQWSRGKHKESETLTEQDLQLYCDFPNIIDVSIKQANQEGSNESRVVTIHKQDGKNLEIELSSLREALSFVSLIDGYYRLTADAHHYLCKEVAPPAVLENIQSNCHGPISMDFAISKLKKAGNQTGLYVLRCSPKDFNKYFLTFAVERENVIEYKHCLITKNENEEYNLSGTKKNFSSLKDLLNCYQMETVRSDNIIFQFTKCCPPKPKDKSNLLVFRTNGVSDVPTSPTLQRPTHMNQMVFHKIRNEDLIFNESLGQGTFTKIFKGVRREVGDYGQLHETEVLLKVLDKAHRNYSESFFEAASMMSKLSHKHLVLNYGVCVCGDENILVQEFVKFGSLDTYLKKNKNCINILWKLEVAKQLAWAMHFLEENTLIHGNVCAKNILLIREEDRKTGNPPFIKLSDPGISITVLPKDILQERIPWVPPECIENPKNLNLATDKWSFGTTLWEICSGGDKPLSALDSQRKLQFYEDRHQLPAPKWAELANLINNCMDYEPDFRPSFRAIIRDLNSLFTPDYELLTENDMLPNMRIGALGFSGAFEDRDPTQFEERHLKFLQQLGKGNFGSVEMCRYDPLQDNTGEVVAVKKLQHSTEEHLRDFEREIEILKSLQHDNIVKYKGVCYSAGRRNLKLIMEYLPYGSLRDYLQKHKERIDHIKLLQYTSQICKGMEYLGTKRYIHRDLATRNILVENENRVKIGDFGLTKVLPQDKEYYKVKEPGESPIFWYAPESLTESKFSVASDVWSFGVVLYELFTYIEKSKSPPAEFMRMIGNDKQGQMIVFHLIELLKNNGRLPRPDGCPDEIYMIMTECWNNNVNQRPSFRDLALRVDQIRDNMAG
Sequence of Muscarinic acetylcholine receptor M4 (Homo sapiens) (P08173 whole entry): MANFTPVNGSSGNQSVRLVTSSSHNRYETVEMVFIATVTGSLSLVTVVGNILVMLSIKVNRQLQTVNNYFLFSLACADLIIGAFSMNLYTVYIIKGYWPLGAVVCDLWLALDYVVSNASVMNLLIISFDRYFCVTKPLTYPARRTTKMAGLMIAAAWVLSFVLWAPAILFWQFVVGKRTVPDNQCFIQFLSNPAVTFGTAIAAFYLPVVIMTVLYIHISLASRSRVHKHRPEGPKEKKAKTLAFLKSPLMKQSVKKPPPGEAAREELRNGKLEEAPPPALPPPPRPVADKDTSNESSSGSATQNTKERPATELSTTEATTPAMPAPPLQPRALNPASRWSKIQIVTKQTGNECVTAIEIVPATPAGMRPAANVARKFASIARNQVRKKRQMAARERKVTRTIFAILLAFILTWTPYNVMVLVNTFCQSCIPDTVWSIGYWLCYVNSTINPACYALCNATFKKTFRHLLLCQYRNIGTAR
Sequence of Muscarinic acetylcholine receptor M3 (Homo sapiens) (P20309 whole entry, looked up): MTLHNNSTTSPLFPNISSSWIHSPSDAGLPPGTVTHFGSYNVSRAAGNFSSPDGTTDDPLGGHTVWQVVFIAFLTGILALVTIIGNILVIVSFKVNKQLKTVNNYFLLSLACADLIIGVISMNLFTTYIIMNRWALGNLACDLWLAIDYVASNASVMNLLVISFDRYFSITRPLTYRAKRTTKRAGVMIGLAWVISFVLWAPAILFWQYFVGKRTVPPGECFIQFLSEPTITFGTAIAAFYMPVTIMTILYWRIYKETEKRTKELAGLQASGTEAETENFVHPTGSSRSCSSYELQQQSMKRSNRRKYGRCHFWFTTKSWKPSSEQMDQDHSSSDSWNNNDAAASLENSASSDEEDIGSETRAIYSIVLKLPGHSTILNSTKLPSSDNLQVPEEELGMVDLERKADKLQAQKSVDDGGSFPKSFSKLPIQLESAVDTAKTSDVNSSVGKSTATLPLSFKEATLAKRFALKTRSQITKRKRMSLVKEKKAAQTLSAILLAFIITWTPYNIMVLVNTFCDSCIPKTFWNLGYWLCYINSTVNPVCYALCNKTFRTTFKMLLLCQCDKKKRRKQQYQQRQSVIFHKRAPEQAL
Sequence of Protein kinase C theta type (Homo sapiens) (Q04759 whole entry, looked up): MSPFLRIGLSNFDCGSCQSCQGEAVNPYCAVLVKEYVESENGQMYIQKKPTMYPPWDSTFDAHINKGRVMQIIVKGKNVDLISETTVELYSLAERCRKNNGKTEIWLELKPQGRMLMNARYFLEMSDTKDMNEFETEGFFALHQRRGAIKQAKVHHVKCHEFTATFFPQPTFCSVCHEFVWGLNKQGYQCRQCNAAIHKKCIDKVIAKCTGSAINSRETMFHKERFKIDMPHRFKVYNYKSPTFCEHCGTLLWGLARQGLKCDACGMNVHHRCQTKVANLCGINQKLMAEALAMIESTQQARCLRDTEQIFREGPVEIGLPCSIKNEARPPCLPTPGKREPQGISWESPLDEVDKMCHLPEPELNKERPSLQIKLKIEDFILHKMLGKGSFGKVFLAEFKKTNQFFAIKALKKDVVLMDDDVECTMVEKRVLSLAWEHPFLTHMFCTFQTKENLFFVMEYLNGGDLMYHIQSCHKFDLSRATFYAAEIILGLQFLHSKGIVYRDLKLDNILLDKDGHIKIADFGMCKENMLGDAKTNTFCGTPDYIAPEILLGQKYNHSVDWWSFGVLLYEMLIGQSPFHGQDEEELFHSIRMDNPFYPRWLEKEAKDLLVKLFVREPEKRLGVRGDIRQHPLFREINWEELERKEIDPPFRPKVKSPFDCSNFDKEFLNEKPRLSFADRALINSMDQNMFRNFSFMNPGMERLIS

Cc1cc(NC(=O)c2cccc(S(F)(F)(F)(F)F)c2)cc(-n2ccn3nc(-c4cccnc4)cc23)c1 [BAY-309]
residual activity [1, 45]: 82.1%
residual activity [2, 45]: 100%
residual activity [3, 45]: 99.1%
residual activity [4, 45]: 100%
residual activity [5, 45]: 75.2%
residual activity [6, 45]: 100%
residual activity [7, 45]: 97.6%
residual activity [8, 45]: 73.8%
residual activity [9, 45]: 100%
residual activity [10, 45]: 49.4%
residual activity [11, 45]: 72.8%
residual activity [12, 45]: 100%
inhibition [13]: -7.94%
residual activity [14, 45]: 100%
residual activity [15, 45]: 100%
residual activity [16, 45]: 100%
inhibition [17]: 14.6%
residual activity [18, 45]: 43.5%
inhibition [19]: 16.3%
residual activity [20, 45]: 91.8%
residual activity [21, 45]: 100%
residual activity [22, 45]: 100%
residual activity [23, 45]: 100%
residual activity [24, 45]: 49.1%
residual activity [25, 45]: 85.3%
residual activity [26, 45]: 100%
residual activity [27, 45]: 91.7%
Ki [28]: 0.0109 µM
pKi [28]: 8.03
residual activity [29, 45]: 100%
residual activity [30, 45]: 22.9%
inhibition [31]: -4.43%
residual activity [32, 45]: 100%
residual activity [33, 45]: 66.2%
residual activity [34, 45]: 100%
residual activity [35, 45]: 52.2%
residual activity [36, 45]: 60.3%
residual activity [37, 45]: 100%
residual activity [38, 45]: 100%
residual activity [39, 45]: 64.2%
residual activity [40, 45]: 99.7%
residual activity [41, 45]: 100%
residual activity [42, 45]: 100%
residual activity [43, 45]: 100%
residual activity [44, 45]: 100%

Cc1cc(C)c(-n2ccn3nc(-c4cccnc4)cc23)cc1NC(=O)c1cc(C#N)cc(S(F)(F)(F)(F)F)c1 [BAY-826]
residual activity [1, 46]: 100%
residual activity [2, 46]: 40.7%
residual activity [3, 46]: 89.9%
residual activity [4, 46]: 84.9%
residual activity [5, 46]: 100%
residual activity [6, 46]: 82.8%
residual activity [7, 46]: 100%
residual activity [8, 46]: 82.4%
residual activity [9, 46]: 85.4%
residual activity [10, 46]: 96.2%
residual activity [11, 46]: 71.1%
residual activity [12, 46]: 97%
inhibition [13]: 9.41%
residual activity [14, 46]: 87.3%
residual activity [15, 46]: 100%
residual activity [16, 46]: 92.4%
inhibition [17]: 14.9%
residual activity [18, 46]: 89.4%
inhibition [19]: 10.5%
residual activity [20, 46]: 70.4%
residual activity [21, 46]: 89.8%
residual activity [22, 46]: 100%
residual activity [23, 46]: 89.6%
residual activity [24, 46]: 61.6%
residual activity [25, 46]: 81.8%
residual activity [26, 46]: 81.4%
residual activity [27, 46]: 85.1%
Ki [28]: 0.217 µM
residual activity [29, 46]: 91.6%
residual activity [30, 46]: 76.2%
inhibition [31]: -6.93%
residual activity [32, 46]: 84.6%
residual activity [33, 46]: 93%
residual activity [34, 46]: 94.1%
residual activity [35, 46]: 29.2%
residual activity [36, 46]: 100%
residual activity [37, 46]: 95.6%
residual activity [38, 46]: 83.3%
residual activity [39, 46]: 59%
residual activity [40, 46]: 80.6%
residual activity [41, 46]: 85.1%
residual activity [42, 46]: 59.1%
residual activity [43, 46]: 91.1%
residual activity [44, 46]: 92.6%
